# According to ChEMBL document CHEMBL1681676, “The design and synthesis of novel N-hydroxyformamide inhibitors of ADAM-TS4 for the treatment of osteoarthritis” (Bioorg Med Chem Lett, 2011):
# Target: Matrix metalloproteinase-14 (Homo sapiens, UniProt P50281)
# Experiment: Inhibition of recombinant human MMP14 assessed as substrate cleavage by measuring increase in fluorescence after 16 hrs
row,Structure (SMILES),IC50
1,C[C@@H](C[C@@](C)(CS(=O)(=O)N1CCC(CCc2ncc(C(F)(F)F)cc2Cl)CC1)N(O)C=O)c1ncc(F)cn1,> 18 µM
2,Cc1cc(C(F)(F)F)cnc1CCC1CCN(S(=O)(=O)C[C@](C)(C[C@H](C)c2ncc(F)cn2)N(O)C=O)CC1,40 µM
3,Cc1cc(CCC2CCN(S(=O)(=O)C[C@](C)(C[C@H](C)c3ncc(F)cn3)N(O)C=O)CC2)n(C)n1,29 µM

# Now from value to compound:
row,IC50,Structure (SMILES)
1,2.6 µM,Cc1nsc(C)c1CCC1CCN(S(=O)(=O)C[C@](C)(C[C@H](C)c2ncc(F)cn2)N(O)C=O)CC1
2,> 3.7 µM,Cc1cc(C)c(CCC2CCN(S(=O)(=O)C[C@](C)(C[C@H](C)c3ncc(F)cn3)N(O)C=O)CC2)cn1
3,> 3.6 µM,C[C@@H](C[C@@](C)(CS(=O)(=O)N1CCC(CCc2ccc(S(C)(=O)=O)cc2Cl)CC1)N(O)C=O)c1ncc(F)cn1

# Target: 72 kDa type IV collagenase (Homo sapiens, UniProt P08253)
# Sequence (P08253 whole entry): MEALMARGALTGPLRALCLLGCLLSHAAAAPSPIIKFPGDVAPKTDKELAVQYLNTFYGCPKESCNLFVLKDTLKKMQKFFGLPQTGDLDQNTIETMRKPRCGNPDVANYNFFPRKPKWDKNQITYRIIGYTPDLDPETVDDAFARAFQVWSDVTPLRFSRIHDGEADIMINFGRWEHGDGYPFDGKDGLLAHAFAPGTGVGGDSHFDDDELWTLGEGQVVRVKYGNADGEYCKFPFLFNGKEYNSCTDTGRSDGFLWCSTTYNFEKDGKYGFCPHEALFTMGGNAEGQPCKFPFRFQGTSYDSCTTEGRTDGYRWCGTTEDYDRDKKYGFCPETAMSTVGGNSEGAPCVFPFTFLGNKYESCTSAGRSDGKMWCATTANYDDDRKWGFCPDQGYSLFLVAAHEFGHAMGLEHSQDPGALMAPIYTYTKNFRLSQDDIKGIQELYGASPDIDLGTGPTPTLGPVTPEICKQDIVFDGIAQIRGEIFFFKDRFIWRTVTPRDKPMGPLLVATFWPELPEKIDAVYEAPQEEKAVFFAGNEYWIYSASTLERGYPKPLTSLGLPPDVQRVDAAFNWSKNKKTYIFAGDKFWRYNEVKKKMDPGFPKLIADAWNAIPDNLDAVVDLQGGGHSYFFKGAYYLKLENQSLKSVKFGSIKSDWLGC
# Experiment: Inhibition of recombinant human MMP2 assessed as substrate cleavage by measuring increase in fluorescence after 16 hrs
row,Structure (SMILES),IC50
1,C[C@@H](C[C@@](C)(CS(=O)(=O)N1CCC(CCc2ncc(C(F)(F)F)cc2Cl)CC1)N(O)C=O)c1ncc(F)cn1,2.8 µM
2,Cc1cc(C(F)(F)F)cnc1CCC1CCN(S(=O)(=O)C[C@](C)(C[C@H](C)c2ncc(F)cn2)N(O)C=O)CC1,2.5 µM
3,Cc1cc(CCC2CCN(S(=O)(=O)C[C@](C)(C[C@H](C)c3ncc(F)cn3)N(O)C=O)CC2)n(C)n1,26 µM

# More lines, now with the values ahead:
row,IC50,Structure (SMILES)
1,2.4 µM,Cc1nsc(C)c1CCC1CCN(S(=O)(=O)C[C@](C)(C[C@H](C)c2ncc(F)cn2)N(O)C=O)CC1
2,2.2 µM,Cc1cc(C)c(CCC2CCN(S(=O)(=O)C[C@](C)(C[C@H](C)c3ncc(F)cn3)N(O)C=O)CC2)cn1
3,0.18 µM,C[C@@H](C[C@@](C)(CS(=O)(=O)N1CCC(CCc2ccc(S(C)(=O)=O)cc2Cl)CC1)N(O)C=O)c1ncc(F)cn1

# Target: Collagenase 3 (Homo sapiens, UniProt P45452)
# Experiment: Inhibition of recombinant human MMP13 assessed as substrate cleavage by measuring increase in fluorescence after 16 hrs
row,Structure (SMILES),IC50
1,C[C@@H](C[C@@](C)(CS(=O)(=O)N1CCC(CCc2ncc(C(F)(F)F)cc2Cl)CC1)N(O)C=O)c1ncc(F)cn1,> 16 µM
2,Cc1cc(C(F)(F)F)cnc1CCC1CCN(S(=O)(=O)C[C@](C)(C[C@H](C)c2ncc(F)cn2)N(O)C=O)CC1,6.1 µM
3,Cc1cc(CCC2CCN(S(=O)(=O)C[C@](C)(C[C@H](C)c3ncc(F)cn3)N(O)C=O)CC2)n(C)n1,6.7 µM

# The next lines start with the values.
row,IC50,Structure (SMILES)
1,4.6 µM,Cc1nsc(C)c1CCC1CCN(S(=O)(=O)C[C@](C)(C[C@H](C)c2ncc(F)cn2)N(O)C=O)CC1
2,> 4.5 µM,Cc1cc(C)c(CCC2CCN(S(=O)(=O)C[C@](C)(C[C@H](C)c3ncc(F)cn3)N(O)C=O)CC2)cn1
3,0.35 µM,C[C@@H](C[C@@](C)(CS(=O)(=O)N1CCC(CCc2ccc(S(C)(=O)=O)cc2Cl)CC1)N(O)C=O)c1ncc(F)cn1

# Target: T1, A disintegrin and metalloproteinase with thrombospondin motifs 4 (Homo sapiens, UniProt O75173)
# T1 sequence (O75173 whole entry): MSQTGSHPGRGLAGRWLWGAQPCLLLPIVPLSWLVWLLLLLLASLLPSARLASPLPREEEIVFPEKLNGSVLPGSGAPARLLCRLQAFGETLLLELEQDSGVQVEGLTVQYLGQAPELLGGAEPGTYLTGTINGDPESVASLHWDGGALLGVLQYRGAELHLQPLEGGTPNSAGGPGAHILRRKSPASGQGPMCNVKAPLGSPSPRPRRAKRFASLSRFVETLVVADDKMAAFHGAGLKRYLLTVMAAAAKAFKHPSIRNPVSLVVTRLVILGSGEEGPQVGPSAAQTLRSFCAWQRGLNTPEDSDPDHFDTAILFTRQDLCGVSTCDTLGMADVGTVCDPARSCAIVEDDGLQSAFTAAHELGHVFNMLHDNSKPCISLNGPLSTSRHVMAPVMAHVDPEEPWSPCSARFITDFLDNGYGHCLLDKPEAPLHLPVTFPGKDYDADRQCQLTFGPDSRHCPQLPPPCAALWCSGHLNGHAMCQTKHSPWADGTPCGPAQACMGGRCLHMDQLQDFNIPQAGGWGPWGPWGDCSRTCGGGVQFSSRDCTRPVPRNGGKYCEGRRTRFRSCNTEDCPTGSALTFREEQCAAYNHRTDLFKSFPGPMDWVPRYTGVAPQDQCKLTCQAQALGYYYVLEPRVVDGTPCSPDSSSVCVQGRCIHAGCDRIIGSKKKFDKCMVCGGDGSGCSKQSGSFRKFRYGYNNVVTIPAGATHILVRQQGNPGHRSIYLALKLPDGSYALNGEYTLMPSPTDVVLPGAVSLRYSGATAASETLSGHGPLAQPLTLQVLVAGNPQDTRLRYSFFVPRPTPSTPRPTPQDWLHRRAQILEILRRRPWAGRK
# Experiment: Inhibition of ADAMTS-4 assessed as substrate cleavage by measuring increase in fluorescence after 16 hrs
row,Structure (SMILES),IC50
1,C[C@@H](C[C@@](C)(CS(=O)(=O)N1CCC(NCc2ccc(Cl)cc2Cl)CC1)N(O)C=O)c1ncc(F)cn1,2.2 µM
2,C[C@@H](C[C@@](C)(CS(=O)(=O)N1CCC(CCc2ncc(C(F)(F)F)cc2Cl)CC1)N(O)C=O)c1ncc(F)cn1,0.0042 µM
3,Cc1cc(C(F)(F)F)cnc1CCC1CCN(S(=O)(=O)C[C@](C)(C[C@H](C)c2ncc(F)cn2)N(O)C=O)CC1,0.0021 µM
4,Cc1cc(CCC2CCN(S(=O)(=O)C[C@](C)(C[C@H](C)c3ncc(F)cn3)N(O)C=O)CC2)n(C)n1,0.0054 µM

# Now those with a lower IC50, led by results:
row,IC50,Structure (SMILES)
1,0.00026 µM,Cc1nsc(C)c1CCC1CCN(S(=O)(=O)C[C@](C)(C[C@H](C)c2ncc(F)cn2)N(O)C=O)CC1
2,0.00068 µM,Cc1cc(C)c(CCC2CCN(S(=O)(=O)C[C@](C)(C[C@H](C)c3ncc(F)cn3)N(O)C=O)CC2)cn1
3,0.00057 µM,C[C@@H](C[C@@](C)(CS(=O)(=O)N1CCC(CCc2ccc(S(C)(=O)=O)cc2Cl)CC1)N(O)C=O)c1ncc(F)cn1

# Target: Disintegrin and metalloproteinase domain-containing protein 17 (Homo sapiens, UniProt P78536)
# Sequence (P78536 whole entry, the tested form may be a part): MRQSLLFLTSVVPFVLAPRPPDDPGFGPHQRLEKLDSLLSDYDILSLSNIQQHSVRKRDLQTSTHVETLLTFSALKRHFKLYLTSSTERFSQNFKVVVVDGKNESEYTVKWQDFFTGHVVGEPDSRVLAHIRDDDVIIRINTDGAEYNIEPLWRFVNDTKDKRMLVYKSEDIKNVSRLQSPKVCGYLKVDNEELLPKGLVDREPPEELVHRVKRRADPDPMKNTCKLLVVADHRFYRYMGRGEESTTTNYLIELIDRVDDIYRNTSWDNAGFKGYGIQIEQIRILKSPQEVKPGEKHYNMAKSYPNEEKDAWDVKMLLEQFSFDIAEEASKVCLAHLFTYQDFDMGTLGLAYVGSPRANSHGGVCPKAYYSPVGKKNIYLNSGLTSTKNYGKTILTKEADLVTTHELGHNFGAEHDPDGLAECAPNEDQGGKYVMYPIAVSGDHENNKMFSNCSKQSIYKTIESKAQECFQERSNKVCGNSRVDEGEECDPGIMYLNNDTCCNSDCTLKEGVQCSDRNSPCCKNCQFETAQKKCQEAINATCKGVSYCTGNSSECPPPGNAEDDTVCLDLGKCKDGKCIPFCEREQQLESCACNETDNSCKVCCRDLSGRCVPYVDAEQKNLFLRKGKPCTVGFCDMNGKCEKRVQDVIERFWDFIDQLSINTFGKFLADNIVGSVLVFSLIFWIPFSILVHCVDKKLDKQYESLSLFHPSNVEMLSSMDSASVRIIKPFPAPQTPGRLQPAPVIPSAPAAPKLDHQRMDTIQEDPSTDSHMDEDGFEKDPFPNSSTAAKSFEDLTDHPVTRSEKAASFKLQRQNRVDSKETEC
# Experiment: Inhibition of TACE assessed as substrate cleavage by measuring increase in fluorescence after 16 hrs
row,Structure (SMILES),IC50
1,C[C@@H](C[C@@](C)(CS(=O)(=O)N1CCC(CCc2ncc(C(F)(F)F)cc2Cl)CC1)N(O)C=O)c1ncc(F)cn1,27 µM
2,Cc1cc(C(F)(F)F)cnc1CCC1CCN(S(=O)(=O)C[C@](C)(C[C@H](C)c2ncc(F)cn2)N(O)C=O)CC1,24 µM
3,Cc1cc(CCC2CCN(S(=O)(=O)C[C@](C)(C[C@H](C)c3ncc(F)cn3)N(O)C=O)CC2)n(C)n1,2.8 µM

# Other lines, results leading:
row,IC50,Structure (SMILES)
1,3 µM,Cc1cc(C)c(CCC2CCN(S(=O)(=O)C[C@](C)(C[C@H](C)c3ncc(F)cn3)N(O)C=O)CC2)cn1
2,5.5 µM,C[C@@H](C[C@@](C)(CS(=O)(=O)N1CCC(CCc2ccc(S(C)(=O)=O)cc2Cl)CC1)N(O)C=O)c1ncc(F)cn1

# Target: T2, Interstitial collagenase (Homo sapiens, UniProt P03956)
# T2 sequence (P03956 whole entry): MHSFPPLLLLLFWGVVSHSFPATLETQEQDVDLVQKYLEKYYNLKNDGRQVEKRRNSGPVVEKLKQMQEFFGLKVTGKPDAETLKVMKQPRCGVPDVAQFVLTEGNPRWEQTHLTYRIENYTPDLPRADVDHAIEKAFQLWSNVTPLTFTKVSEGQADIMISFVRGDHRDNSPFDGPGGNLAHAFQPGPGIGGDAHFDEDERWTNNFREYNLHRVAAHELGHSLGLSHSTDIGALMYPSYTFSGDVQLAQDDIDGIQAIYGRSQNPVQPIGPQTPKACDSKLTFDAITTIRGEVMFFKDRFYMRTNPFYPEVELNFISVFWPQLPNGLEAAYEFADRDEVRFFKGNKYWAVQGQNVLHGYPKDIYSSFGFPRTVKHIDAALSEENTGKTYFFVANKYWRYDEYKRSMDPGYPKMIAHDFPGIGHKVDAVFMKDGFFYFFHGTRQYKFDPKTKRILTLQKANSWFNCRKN
# Experiment: Inhibition of recombinant human MMP1 assessed as substrate cleavage by measuring increase in fluorescence after 16 hrs
row,Structure (SMILES),IC50
1,C[C@@H](C[C@@](C)(CS(=O)(=O)N1CCC(CCc2ncc(C(F)(F)F)cc2Cl)CC1)N(O)C=O)c1ncc(F)cn1,> 70 µM
2,Cc1cc(C(F)(F)F)cnc1CCC1CCN(S(=O)(=O)C[C@](C)(C[C@H](C)c2ncc(F)cn2)N(O)C=O)CC1,> 79 µM
3,Cc1cc(CCC2CCN(S(=O)(=O)C[C@](C)(C[C@H](C)c3ncc(F)cn3)N(O)C=O)CC2)n(C)n1,> 10 µM

# More lines, now with the values ahead:
row,IC50,Structure (SMILES)
1,> 100 µM,Cc1cc(C)c(CCC2CCN(S(=O)(=O)C[C@](C)(C[C@H](C)c3ncc(F)cn3)N(O)C=O)CC2)cn1
2,> 70 µM,C[C@@H](C[C@@](C)(CS(=O)(=O)N1CCC(CCc2ccc(S(C)(=O)=O)cc2Cl)CC1)N(O)C=O)c1ncc(F)cn1
